Assay results published in ChEMBL document CHEMBL3727361, “Nitrogen bicyclic compounds as inhibitors for Scyl1 and Grk5” (2014).

What follows are compounds tested on Beta-TC6 (assay: Increase in insulin release in mouse BetaTC6 cells assessed as relative insulin release activity at 10 uM incubated for 2 to 4 hrs by FRET based HTRF assay relative to sunitinib).
Format: functional
COc1cccc(CC(=O)Nc2cnc3cnc(-c4ccc(Oc5ccccc5)cc4)cn23)c1 gave an Activity of 10%.
With O=C(NC1CCCC1)c1ccc(-c2cn3c(-c4ccc(CO)cc4)cnc3cn2)cc1 the Activity was 20%.
Compound COc1cc(OC)cc(-c2cn3c(-c4cccs4)cnc3cn2)c1 has an Activity of 20%.
Compound CC(=O)Nc1cccc(-c2ccc3nnc(-c4ccccc4)n3c2)c1 has an Activity of 50%.
Work on c1ccc(-c2cnc3cnc(-c4ccsc4)cn23)cc1 yielded an Activity of 20%.
COc1cccc(C#Cc2ccc3nnc(-c4cccc(OC(F)(F)F)c4)n3c2)c1 gave an Activity of 20%.
c1cc(-c2ccc3nnc(-c4ccc5c(c4)OCO5)n3c2)co1 was tested, and the Activity was 50%.
Work on COc1ccc(-c2cn3c(-c4ccc(OC)nc4)cnc3cn2)cn1 yielded an Activity of 20%.
Work on N#Cc1ccc(-c2ccc3nnc(-c4cccc(O)c4)n3c2)cc1 yielded an Activity of 50%.
CSc1ccccc1-c1cnc2cccnn12 gave an Activity of 50%.
For Cc1cc(-c2cn3c(-c4ccncc4)cnc3cn2)cc(C)c1O, the Activity was 20%.
For COc1ccc(-c2cn3c(-c4ccc(N(C)C)cc4)cnc3cn2)cn1, the Activity was 50%.
COc1ccc(-c2nnc3ccc(-c4cccs4)cn23)cc1OC showed an Activity of 50%.
CN(C)c1ccc(-c2cnc3cnc(-c4ccccc4Cl)cn23)cc1 showed an Activity of 20%.
With COc1ccccc1CC(=O)Nc1cnc2cnc(-c3cccc(Cl)c3Cl)cn12 the Activity was 20%.
Clc1cccc(-c2nnc3ccc(-c4ccncc4)cn23)c1 gave an Activity of 50%.
CC(=O)Nc1ccc(-c2cnc3ccc(-c4ccc(S(C)(=O)=O)cc4)nn23)cc1 was tested, and the Activity was 10%.
For CCOc1cccc(-c2cn3c(-c4ccc(O)c(OC)c4)cnc3cn2)c1, the Activity was 50%.
For Oc1cccc(-c2cnc3cnc(-c4cccc(Cl)c4)cn23)c1, the Activity was 20%.
c1ccc(-c2ccc3ncc(-c4ccc5c(c4)OCO5)n3n2)cc1 gave an Activity of 20%.
COc1cccc(-c2cn3c(-c4cccc(O)c4)cnc3cn2)c1F showed an Activity of 20%.
Compound CCCC/C=C/c1cn2c(NC(=O)Cc3cccc(OC)c3)cnc2cn1 has an Activity of 10%.
Compound Oc1cccc(-c2cnc3ccc(-c4ccc(F)cc4)nn23)c1 has an Activity of 20%.
c1cncc(-c2cnc3ccc(-c4ccoc4)nn23)c1 gave an Activity of 20%.
In the case of OCC#Cc1ccc2nnc(-c3ccc4c(c3)OCO4)n2c1, the Activity is reported as 20%.
Compound CN(C)c1ccccc1-c1cn2c(-c3cccs3)cnc2cn1 has an Activity of 20%.
CS(=O)(=O)c1cccc(-c2ccc3nnc(-c4cccc(OC(F)(F)F)c4)n3c2)c1 was tested, and the Activity was 50%.
CC(=O)Nc1cccc(-c2cn3c(-c4ccc(C(=O)N(C)C)cc4)cnc3cn2)c1 was tested, and the Activity was 20%.
For COc1ccc(-c2nnc3ccc(-c4cccc(C(=O)N(C)C)c4)cn23)cc1OC, the Activity was 50%.
For CN1CCN(C(=O)c2cccc(-c3cnc4cnc(-c5ccc6c(ccn6C)c5)cn34)c2)CC1, the Activity was 20%.
With COc1ccc(-c2cnc3cnc(-c4cccs4)cn23)cc1 the Activity was 20%.
With c1nc(-c2nnc3ccc(-c4ccc(N5CCOCC5)cc4)cn23)cs1 the Activity was 50%.
Compound Clc1ccc(-c2cnc3cnc(-c4ccncc4)cn23)cc1 has an Activity of 20%.
Work on CC(C(=O)Nc1cnc2cnc(-c3ccc4c(c3)OCO4)cn12)c1ccccc1 (stereo not given) yielded an Activity of 20%.
In the case of COc1ccc(-c2cnc3cnc(-c4ccc(N5CCN(C)CC5)cc4)cn23)cn1, the Activity is reported as 20%.
Work on CCCNc1ccc2ncc(-c3ccc(C(=O)O)cc3)n2n1 yielded an Activity of 10%.
CN(C)CCCNC(=O)c1ccc(-c2cn3c(-c4ccc5c(ccn5C)c4)cnc3cn2)cc1 showed an Activity of 20%.
For COc1ccc(-c2ccc3nnc(-c4ccccc4)n3c2)c(C)c1, the Activity was “>=100%”.
OCc1cccc(-c2cnc3cnc(-c4ccccc4)cn23)c1 was tested, and the Activity was 20%.
With Clc1cccc(-c2nnc3ccc(-c4ccoc4)cn23)c1 the Activity was 50%.
In the case of O=C(Nc1cnc2cnc(-c3ccsc3)cn12)c1cccs1, the Activity is reported as 20%.
In the case of COc1cc(OC)cc(-c2cn3c(-c4ccsc4)cnc3cn2)c1, the Activity is reported as 20%.
Compound O=C(NCCO)c1cccc(-c2cn3c(-c4cccc(OC(F)(F)F)c4)cnc3cn2)c1 has an Activity of 20%.
For CC(=O)c1cccc(-c2cnc3cnc(-c4cccs4)cn23)c1, the Activity was 50%.
For Cn1ccc2cc(-c3cnc4cnc(-c5cccc(C(N)=O)c5)cn34)ccc21, the Activity was 20%.
With CN1CCN(c2ccc(-c3cn4c(-c5cccc(O)c5)cnc4cn3)cc2)CC1 the Activity was 20%.
Oc1cccc(-c2nnc3ccc(-c4ccc(F)cc4)cn23)c1 gave an Activity of 50%.
For Clc1ccccc1-c1ccc2nnc(-c3cscn3)n2c1, the Activity was 50%.
CC(=O)Nc1cccc(-c2cnc3ccc(NCc4ccc(F)cc4)nn23)c1 showed an Activity of 10%.
OCc1cccc(-c2ccc3nnc(-c4ccccn4)n3c2)c1 was tested, and the Activity was 20%.
CS(=O)(=O)Nc1ccc(-c2cnc3cccnn23)cc1 gave an Activity of 10%.
CNc1ccc2ncc(/C=C\CCCO)n2n1 was tested, and the Activity was 10%.
COc1ccc(-c2ccc3ncc(-c4cccc(Cl)c4)n3n2)c(C)c1 showed an Activity of 10%.
With Fc1ccc(-c2cn3c(-c4ccsc4)cnc3cn2)cc1Cl the Activity was 20%.
Work on CN(C)c1cccc(-c2cnc3cnc(-c4ccncc4)cn23)c1 yielded an Activity of 20%.
With c1ccc(Oc2cccc(-c3ccc4nnc(-c5ccncc5)n4c3)c2)cc1 the Activity was 20%.
For COc1ccc(-c2ccc3nnc(-c4ccoc4)n3c2)cc1, the Activity was 50%.
In the case of CNc1ccc2ncc(-c3ccccc3O)n2n1, the Activity is reported as 20%.
For Oc1cccc(-c2nnc3ccc(-c4cccc5ncccc45)cn23)c1, the Activity was 20%.
CNC(=O)c1cccc(-c2ccc3nnc(-c4ccc5c(c4)OCO5)n3c2)c1 showed an Activity of 20%.
COc1cc(-c2cnc3cnc(-c4ccc(N)nc4)cn23)ccc1O gave an Activity of 20%.
OCc1ccc(-c2cnc3ccc(-c4cncnc4)nn23)cc1 gave an Activity of 10%.
Clc1cccc(-c2nnc3ccc(-c4ccc5c(c4)OCO5)cn23)c1 showed an Activity of 50%.
Work on COc1cccc(-c2ccc3nnc(-c4cscn4)n3c2)c1 yielded an Activity of 50%.
Cc1cccc(-c2cn3c(-c4ccc(CCC(=O)O)cc4)cnc3cn2)c1C showed an Activity of 50%.
With CS(=O)(=O)Nc1cccc(-c2cn3c(-c4ccc5ncccc5c4)cnc3cn2)c1 the Activity was 20%.
COc1ccccc1-c1ccc2ncc(-c3cccc(OC(F)(F)F)c3)n2n1 gave an Activity of 10%.
COc1ccc(CNc2ccc3ncc(-c4ccc5[nH]ccc5c4)n3n2)cc1 was tested, and the Activity was 20%.
For Oc1cccc(-c2ccc3ncc(-c4cccc(C(F)(F)F)c4)n3n2)c1, the Activity was 20%.
Compound O=S1(=O)CCN(CC#Cc2ccc3nnc(-c4cscn4)n3c2)CC1 has an Activity of 10%.
For CS(=O)(=O)Nc1cccc(-c2cnc3ccc(Cc4ccc(F)cc4)nn23)c1, the Activity was 10%.
CN(C)c1ccc(-c2cnc3cnc(-c4ccccc4N(C)C)cn23)cc1 was tested, and the Activity was 20%.
With COc1cc(-c2ccc3ncc(-c4cccs4)n3n2)ccc1O the Activity was 20%.
Compound CN(C)C(=O)c1ccc(-c2cnc3cnc(-c4ccccc4Oc4ccccc4)cn23)cc1 has an Activity of 20%.
Fc1cccc(-c2cnc3cnc(-c4ccc(N5CCNCC5)cc4)cn23)c1 gave an Activity of 10%.
In the case of OCc1ccc(-c2ccc3nnc(-c4ccncc4)n3c2)cc1, the Activity is reported as 20%.
For COc1cc(OC)cc(-c2cn3c(-c4ccc5c(c4)OCO5)cnc3cn2)c1, the Activity was 50%.
O=C(O)CCc1ccc(-c2cnc3cnc(-c4ccccc4Cl)cn23)cc1 was tested, and the Activity was 50%.
CSc1ccc(-c2cn3c(-c4cccnc4)cnc3cn2)cc1 showed an Activity of 20%.
For COc1ccc(-c2nnc3ccc(-c4cccc(F)c4)cn23)cc1OC, the Activity was “>=100%”.
With COc1cc(OC)cc(-c2cn3c(-c4cccc(O)c4)cnc3cn2)c1 the Activity was 20%.
In the case of OCc1ccc(-c2cnc3cnc(-c4ccc(Cl)cc4Cl)cn23)cc1, the Activity is reported as 20%.
Work on Clc1ccccc1-c1ccc2ncc(-c3cccs3)n2n1 yielded an Activity of 10%.
With CC(=O)c1cccc(-c2cnc3cnc(-c4cccc(F)c4)cn23)c1 the Activity was 20%.
O=C(NC1CC1)c1ccc(-c2cn3c(-c4ccc(O)cc4)cnc3cn2)cc1 was tested, and the Activity was 20%.
For COc1cccc(CC(=O)Nc2cnc3cnc(-c4ccccc4CN(C)C)cn23)c1, the Activity was 20%.
COc1ccc(-c2nnc3ccc(-c4cccc(N(C)C)c4)cn23)cc1OC showed an Activity of 50%.
C(#Cc1ccccn1)c1ccc2nnc(-c3ccccc3)n2c1 gave an Activity of 50%.
In the case of O=C(NCCO)c1ccc(-c2cn3c(-c4ccsc4)cnc3cn2)cc1, the Activity is reported as 10%.
Work on c1csc(-c2cn3c(-c4ccsc4)cnc3cn2)c1 yielded an Activity of 50%.
COc1ccc(-c2ccc3nnc(-c4cscn4)n3c2)c(C)c1 was tested, and the Activity was 50%.
Clc1cccc(-c2nnc3ccc(-c4cccnc4)cn23)c1 gave an Activity of 50%.
With COc1cncc(-c2ccc3nnc(-c4cccc(OC(F)(F)F)c4)n3c2)c1 the Activity was 50%.
Compound O=C(O)CCc1ccc(-c2cnc3cnc(-c4cccc(Cl)c4)cn23)cc1 has an Activity of 20%.
c1csc(-c2cnc3cnc(-c4ccncc4)cn23)c1 was tested, and the Activity was 20%.
c1cncc(CCNc2ccc3ncc(-c4ccc5ccccc5c4)n3n2)c1 was tested, and the Activity was 10%.
In the case of Fc1cccc(-c2cnc3cnc(-c4ccc5c(c4)OCO5)cn23)c1, the Activity is reported as 20%.
Work on COc1cc(CNc2ccc3ncc(-c4ccc(N(C)C)cc4)n3n2)cc(OC)c1OC yielded an Activity of 10%.
With CCOc1cccc(-c2cnc3cccnn23)c1 the Activity was 10%.
c1cc2c(cc1CNc1ccc3ncc(-c4ccc(N5CCOCC5)cc4)n3n1)OCO2 gave an Activity of 20%.
For Nc1cccc(-c2cn3c(-c4cccc(F)c4)cnc3cn2)c1, the Activity was 20%.
Compound O=C(NCCO)c1ccc(-c2cn3c(-c4cccs4)cnc3cn2)cc1 has an Activity of 10%.
In the case of Clc1cccc(-c2cn3c(-c4cccs4)cnc3cn2)c1, the Activity is reported as 20%.
In the case of FC(F)(F)Oc1cccc(-c2nnc3ccc(C#Cc4ccccc4)cn23)c1, the Activity is reported as 20%.
In the case of Fc1ccc(-c2ccc3ncc(-c4cccs4)n3n2)cc1Cl, the Activity is reported as 20%.
Work on Clc1cccc(-c2nnc3ccc(-c4cncc5ccccc45)cn23)c1 yielded an Activity of 50%.
In the case of COc1cc(-c2cnc3cnc(-c4ccc(N5CCN(C)CC5)nc4)cn23)cc(OC)c1OC, the Activity is reported as 20%.
In the case of CC(=O)Nc1cccc(-c2cnc3ccc(-c4cccnc4)nn23)c1, the Activity is reported as 10%.
CN(C)c1ccc(-c2cnc3cnc(-c4cccc(NS(C)(=O)=O)c4)cn23)cc1 gave an Activity of 20%.
CN(C)c1cccc(-c2cnc3cnc(-c4cccs4)cn23)c1 gave an Activity of 20%.
